Reference: article PMC11079024, “Identification of a family of species-selective complex I inhibitors as potential anthelmintics” (Nature Communications, 2024)
Where “and” joins values, the source holds several entries; their conditions need not be identical. Equal values may be shown once. Read-outs that look alike come from different tables or passages of the source.

Molecular target: C. elegans (N2) complex I (NADH:ubiquinone oxidoreductase) (Caenorhabditis elegans, UniProt P24887+Q93873+Q94360)
Sequence (Q94360 17-199): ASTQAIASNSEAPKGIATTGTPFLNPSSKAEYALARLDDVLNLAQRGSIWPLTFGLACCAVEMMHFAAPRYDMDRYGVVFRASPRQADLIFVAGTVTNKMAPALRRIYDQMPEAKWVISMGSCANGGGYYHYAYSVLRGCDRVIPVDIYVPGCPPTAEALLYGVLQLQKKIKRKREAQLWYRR
Sequence (P24887 whole entry): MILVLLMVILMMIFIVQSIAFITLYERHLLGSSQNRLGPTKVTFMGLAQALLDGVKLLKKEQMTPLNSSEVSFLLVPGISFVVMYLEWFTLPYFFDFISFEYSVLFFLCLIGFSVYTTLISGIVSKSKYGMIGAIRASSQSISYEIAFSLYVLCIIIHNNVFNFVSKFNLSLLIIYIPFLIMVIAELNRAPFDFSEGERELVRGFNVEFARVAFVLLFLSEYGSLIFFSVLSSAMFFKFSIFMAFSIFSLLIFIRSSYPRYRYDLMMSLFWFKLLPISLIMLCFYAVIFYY
Sequence (Q93873 31-482): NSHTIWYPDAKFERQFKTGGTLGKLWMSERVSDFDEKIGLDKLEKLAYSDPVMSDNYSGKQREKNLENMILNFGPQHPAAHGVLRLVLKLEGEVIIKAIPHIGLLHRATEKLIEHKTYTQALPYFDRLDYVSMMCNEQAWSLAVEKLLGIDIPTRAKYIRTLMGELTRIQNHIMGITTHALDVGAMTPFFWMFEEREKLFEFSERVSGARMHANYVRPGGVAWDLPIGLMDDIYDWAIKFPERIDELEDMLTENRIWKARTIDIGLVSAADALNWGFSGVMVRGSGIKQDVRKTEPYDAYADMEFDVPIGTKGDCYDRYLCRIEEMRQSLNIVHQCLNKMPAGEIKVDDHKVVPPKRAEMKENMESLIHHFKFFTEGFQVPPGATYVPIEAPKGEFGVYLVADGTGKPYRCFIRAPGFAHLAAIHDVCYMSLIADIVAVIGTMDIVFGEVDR
Test: biochemical
Assay type: biochemical
Outline: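 Mitochondria from liquid-cultured adults were freeze-thawed thrice before the 15-min DCIP-coupled NADH oxidation read.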

[1] = wild-type C. elegans, individual Rep1-Rep4, read-out: percent in vitro complex I activity relative to solvent control, single replicates
[2] = wild-type C. elegans, mean of Rep1-4, read-out: percent in vitro complex I activity relative to solvent control, Mean
[3] = N2 wild-type mitochondria, Fig. 4d data set, mean of replicates, read-out: percent (%) in vitro complex I activity relative to solvent control
[4] = wild-type C. elegans mitochondria, mean of replicates, read-out: percent (%) in vitro complex I activity relative to solvent control
[5] = wild-type C. elegans mitochondria, single replicate, read-out: percent (%) in vitro complex I activity relative to solvent control
[6] = C. elegans mitochondria, Mean of replicates, read-out: in vitro complex I activity relative to solvent control
[7] = C. elegans mitochondria, single replicate, read-out: in vitro complex I activity relative to solvent control
[8] = C. elegans mitochondria, Mean, read-out: in vitro complex I activity relative to solvent control

`CC(C)Cc1ccc(C(C)c2nc3ccccc3n2C)cc1` (stereo not drawn) [NPD8790] was tested, and the remaining activity at 0.0001 µM [1] was 100%, the remaining activity at 0.0001 µM [2] was 96.6% and the remaining activity at 0.0005 µM [1] was 105%. The remaining activity at 0.0005 µM [2] was 96.5%, the remaining activity at 0.001 µM [1] was 99% and the remaining activity at 0.001 µM [2] was 92.6%. For the same compound, the remaining activity at 0.0025 µM [1] was 107%, the remaining activity at 0.0025 µM [2] was 98.8% and the remaining activity at 0.005 µM [1] was 102%. It also gave a remaining activity at 0.005 µM [2] of 95.9%, a remaining activity at 0.013 µM [2] of 106% and a remaining activity at 0.025 µM [1] of 102%. It also gave a remaining activity at 0.025 µM [2] of 98.2%, a remaining activity at 0.063 µM [2] of 95.6% and a remaining activity at 0.125 µM [3] of 96.6%. It also gave a remaining activity at 0.125 µM (N2 wild-type mitochondria, Fig. 4d data set, single replicate, read-out: percent (%) in vitro complex I activity relative to solvent control) of 94.3%, a remaining activity at 0.125 µM [4] of 102% and a remaining activity at 0.125 µM [5] of 95.7%. For the same compound, the remaining activity at 0.125 µM [1] was 95.7%, the remaining activity at 0.125 µM [2] was 92% and the remaining activity at 0.313 µM [3] was 90.9%. It also gave a remaining activity at 0.313 µM [4] of 93%, a remaining activity at 0.313 µM [1] of 86.3% and a remaining activity at 0.313 µM [2] of 81.9%. The remaining activity at 0.625 µM [3] was 93.2%, the remaining activity at 0.625 µM [4] was 87% and the remaining activity at 0.625 µM [2] was 83.7%. It also gave a remaining activity at 1.5 µM [3] of 78.9%, a remaining activity at 1.5 µM [4] of 72.5% and a remaining activity at 1.5 µM [2] of 70.3%. It also gave a remaining activity at 3 µM [3] of 61.6%, a remaining activity at 3 µM [4] of 52.5% and a remaining activity at 3 µM [2] of 49.5%. The remaining activity at 15 µM [3] was 8.9%, the remaining activity at 15 µM [4] was 7.83% and the remaining activity at 15 µM [2] was 8.01%. The remaining activity at 37.5 µM [3] was 5.01%, the remaining activity at 37.5 µM [4] was 3.88% and the remaining activity at 37.5 µM [2] was 3.5%. The remaining activity at 75 µM [2] was 13.3%, the activity at 100 µM (100 µM compound, relative to solvent control, mean (SEM), read-out: % Activity Complex I) was 5.34% and the “Percent in vitro activity, Complex I (single replicate Rep1-Rep4)” value (100 μM of NPD compound, C. elegans mitochondria, individual biological replicates, 100 µM) was 0.000% and 4.423% and 13.672% and 3.252%. For the same compound, the activity at 100 µM (100 μM of NPD compound, C. elegans mitochondria, mean of four biological replicates, read-out: Percent in vitro activity, Complex I (Mean)) was 5.34%, the remaining activity at 0.06 µM (C. elegans mitochondria, 0.06 µM, Mean of replicates, read-out: in vitro complex I activity relative to solvent control) was 109% and the remaining activity at 0.13 µM [6] was 102%. It also gave a remaining activity at 0.13 µM [7] of 112%, a remaining activity at 0.313 µM [6] of 93% and a remaining activity at 0.625 µM [6] of 87%. For the same compound, the remaining activity at 1.5 µM [6] was 72.5%, the remaining activity at 3 µM [6] was 52.5% and the remaining activity at 15 µM [6] was 7.83%. It also gave a remaining activity at 37.5 µM [6] of 3.88%, a remaining activity at 0.0001 µM [8] of 104% and a remaining activity at 0.0005 µM [8] of 106%. For the same compound, the remaining activity at 0.0005 µM [7] was 105%, the remaining activity at 0.001 µM [8] was 104% and the remaining activity at 0.0025 µM [8] was 109%. It also gave a remaining activity at 0.0025 µM [7] of 107%, a remaining activity at 0.005 µM [8] of 107% and a remaining activity at 0.013 µM [8] of 115%. The remaining activity at 0.025 µM [8] was 108%, the remaining activity at 0.025 µM [7] was 102% and the remaining activity at 0.063 µM [8] was 109%. For the same compound, the remaining activity at 0.125 µM [8] was 102%, the remaining activity at 0.125 µM [7] was 95.7% and the remaining activity at 0.313 µM [8] was 93%. The remaining activity at 0.625 µM [8] was 87% and the remaining activity at 1.5 µM [8] was 72.5%.
With `COc1ccc(Cc2nccc3cc(OC)c(OC)cc23)cc1OC` [Papaverine, reference compound] the remaining activity at 0.125 µM [4] was 95.7%, the remaining activity at 0.313 µM [4] was 87.5% and the remaining activity at 0.313 µM [5] was 85.7%. It also gave a remaining activity at 0.625 µM [4] of 100%, a remaining activity at 0.625 µM [5] of 100% and a remaining activity at 1.5 µM [4] of 81.8%. It also gave a remaining activity at 1.5 µM [5] of 81.5%, a remaining activity at 3 µM [4] of 63.8% and a remaining activity at 3 µM [5] of 67.5%. The remaining activity at 15 µM [4] was 22.1%, the remaining activity at 37.5 µM [4] was 6.94% and the remaining activity at 75 µM [4] was 7.49%. It also gave an IC50 (wild-type (N2) mitochondria, read-out: C. elegans Complex I IC50) of 4.34 µM.
